{"source": "paper PMC12254355", "about": "(Nature Communications, 2025)", "key": {"[1]": {"system": "E. coli AIC221", "details": "AIC221, 24 h"}, "[2]": {"system": "K. pneumoniae ATCC 13883", "details": "ATCC 13883, 24 h"}, "[3]": {"system": "E. coli AIC222 (polymyxin resistant; colistin-resistant strain)", "details": "24 h"}, "[4]": {"system": "E. faecium ATCC 700221 - VRE", "details": "ATCC 700221, 24 h"}, "[5]": {"system": "HEK293T cells", "details": "for CC50 vs HEK293T cells (source data of Figure 4a): 24 h"}, "[6]": {"system": "human red blood cells", "details": "pH 7.4"}, "[7]": {"system": "E. faecalis ATCC 700802 - VRE", "details": "ATCC 700802, 24 h"}, "[8]": {"system": "A. baumannii ATCC 19606", "details": "ATCC 19606, 24 h"}, "[9]": {"system": "S. aureus ATCC BAA-1556 - MRSA", "details": "ATCC BAA-1556, 24 h"}, "[10]": {"system": "S. aureus ATCC 12600", "details": "ATCC 12600, 24 h"}, "[11]": {"system": "P. aeruginosa PA14", "details": "PA14, 24 h"}, "[12]": {"system": "E. coli ATCC 11775", "details": "ATCC 11775, 24 h"}, "[13]": {"system": "P. aeruginosa PAO1", "details": "PAO1, 24 h"}, "[14]": {"system": "11 clinically relevant pathogens", "assay_type": "cell-based"}}, "note": "Ends that are not written are not given here."}
{"sequence": "KFLARLVFRKFILL [UniprotKB-13]", "values": [{"measurement": "Minimal Inhibitory Concentration, E. coli AIC221 (-)", "setting": "[1]", "result": 8, "unit": "µmol/L"}, {"measurement": "Minimal Inhibitory Concentration, K. pneumoniae ATCC 13883 (-)", "setting": "[2]", "result": 64, "unit": "µmol/L"}, {"measurement": "Minimal Inhibitory Concentration, E. coli AIC222 (-)", "setting": "[3]", "result": 32, "unit": "µmol/L"}, {"measurement": "Minimal Inhibitory Concentration, E. faecium ATCC 700221 - VRE (+)", "setting": "[4]", "result": 2, "unit": "µmol/L"}, {"measurement": "CC50 vs HEK293T cells", "setting": "[5]", "result": 27, "unit": "µM"}, {"measurement": "SIcytotoxicity", "setting": "[5]", "result": 13.4}, {"measurement": "HC50", "setting": "[6]", "result": 455.9}, {"measurement": "Minimal Inhibitory Concentration, E. faecalis ATCC 700802 - VRE (+)", "setting": "[7]", "result": 32, "unit": "µmol/L"}]}
{"sequence": "KLLKIGLKSFARVLKKVL [Arachnoserver-1]", "values": [{"measurement": "Minimal Inhibitory Concentration, E. coli AIC221 (-)", "setting": "[1]", "result": 4, "unit": "µmol/L"}, {"measurement": "Minimal Inhibitory Concentration, A. baumannii ATCC 19606 (-)", "setting": "[8]", "result": 16, "unit": "µmol/L"}, {"measurement": "Minimal Inhibitory Concentration, K. pneumoniae ATCC 13883 (-)", "setting": "[2]", "result": 8, "unit": "µmol/L"}, {"measurement": "Minimal Inhibitory Concentration, S. aureus ATCC BAA-1556 - MRSA (+)", "setting": "[9]", "result": 16, "unit": "µmol/L"}, {"measurement": "Minimal Inhibitory Concentration, S. aureus ATCC 12600 (+)", "setting": "[10]", "result": 16, "unit": "µmol/L"}, {"measurement": "Minimal Inhibitory Concentration, E. faecium ATCC 700221 - VRE (+)", "setting": "[4]", "result": 16, "unit": "µmol/L"}, {"measurement": "Minimal Inhibitory Concentration, P. aeruginosa PA14 (-)", "setting": "[11]", "result": 8, "unit": "µmol/L"}, {"measurement": "SIcytotoxicity", "setting": "[5]", "result": 6.6}, {"measurement": "CC50 vs HEK293T cells (source data of Figure 4a)", "setting": "[5]", "result": 26.22, "unit": "µM"}, {"measurement": "HC50", "setting": "[6]", "result": 82.7}, {"measurement": "Minimal Inhibitory Concentration, E. coli ATCC 11775 (-)", "setting": "[12]", "result": 8, "unit": "µmol/L"}]}
{"sequence": "LLHFSIWRSTVLRK [ISOB-4]", "values": [{"measurement": "Minimal Inhibitory Concentration, E. faecium ATCC 700221 - VRE (+)", "setting": "[4]", "result": 16, "unit": "µmol/L"}, {"measurement": "SIcytotoxicity", "setting": "[5]", "result": 9.7}, {"measurement": "HC50", "setting": "[6]", "result": 24308.0}, {"measurement": "Minimal Inhibitory Concentration, E. faecalis ATCC 700802 - VRE (+)", "setting": "[7]", "result": 64, "unit": "µmol/L"}]}
{"sequence": "KLSGISKVLRAIAKFFK [Arachnoserver-28]", "values": [{"measurement": "Minimal Inhibitory Concentration, E. coli AIC221 (-)", "setting": "[1]", "result": 32, "unit": "µmol/L"}, {"measurement": "Minimal Inhibitory Concentration, A. baumannii ATCC 19606 (-)", "setting": "[8]", "result": 32, "unit": "µmol/L"}, {"measurement": "Minimal Inhibitory Concentration, K. pneumoniae ATCC 13883 (-)", "setting": "[2]", "result": 32, "unit": "µmol/L"}, {"measurement": "Minimal Inhibitory Concentration, S. aureus ATCC BAA-1556 - MRSA (+)", "setting": "[9]", "result": 32, "unit": "µmol/L"}, {"measurement": "Minimal Inhibitory Concentration, S. aureus ATCC 12600 (+)", "setting": "[10]", "result": 32, "unit": "µmol/L"}, {"measurement": "Minimal Inhibitory Concentration, P. aeruginosa PAO1 (-)", "setting": "[13]", "result": 32, "unit": "µmol/L"}, {"measurement": "Minimal Inhibitory Concentration, E. faecium ATCC 700221 - VRE (+)", "setting": "[4]", "result": 8, "unit": "µmol/L"}, {"measurement": "Minimal Inhibitory Concentration, P. aeruginosa PA14 (-)", "setting": "[11]", "result": 8, "unit": "µmol/L"}, {"measurement": "CC50 vs HEK293T cells", "setting": "[5]", "result": 6, "unit": "µM"}, {"measurement": "SIcytotoxicity", "setting": "[5]", "result": 0.8}, {"measurement": "CC50 vs HEK293T cells (source data of Figure 4a)", "setting": "[5]", "result": 6.347, "unit": "µM"}, {"measurement": "HC50", "setting": "[6]", "result": 38.2}, {"measurement": "Minimal Inhibitory Concentration, E. coli ATCC 11775 (-)", "setting": "[12]", "result": 64, "unit": "µmol/L"}]}
{"sequence": "WLGSALKIGAKLL [UniprotKB-2]", "values": [{"measurement": "Antimicrobial activity against the pathogen panel (in words)", "setting": "[14]", "result": "no activity"}, {"measurement": "CC50 vs HEK293T cells", "setting": "[5]", "result": 8, "unit": "µM"}, {"measurement": "CC50 vs HEK293T cells (source data of Figure 4a)", "setting": "[5]", "result": 8.278, "unit": "µM"}, {"measurement": "HC50", "setting": "[6]", "result": "5.529e+042"}]}
{"sequence": "RGLAKLLKIGLKSFARVLKK [Arachnoserver-12]", "values": [{"measurement": "Minimal Inhibitory Concentration, E. coli AIC221 (-)", "setting": "[1]", "result": 4, "unit": "µmol/L"}, {"measurement": "Minimal Inhibitory Concentration, A. baumannii ATCC 19606 (-)", "setting": "[8]", "result": 32, "unit": "µmol/L"}, {"measurement": "Minimal Inhibitory Concentration, K. pneumoniae ATCC 13883 (-)", "setting": "[2]", "result": 32, "unit": "µmol/L"}, {"measurement": "Minimal Inhibitory Concentration, S. aureus ATCC BAA-1556 - MRSA (+)", "setting": "[9]", "result": 64, "unit": "µmol/L"}, {"measurement": "Minimal Inhibitory Concentration, S. aureus ATCC 12600 (+)", "setting": "[10]", "result": 64, "unit": "µmol/L"}, {"measurement": "Minimal Inhibitory Concentration, P. aeruginosa PAO1 (-)", "setting": "[13]", "result": 16, "unit": "µmol/L"}, {"measurement": "Minimal Inhibitory Concentration, E. faecium ATCC 700221 - VRE (+)", "setting": "[4]", "result": 8, "unit": "µmol/L"}, {"measurement": "Minimal Inhibitory Concentration, P. aeruginosa PA14 (-)", "setting": "[11]", "result": 8, "unit": "µmol/L"}, {"measurement": "CC50 vs HEK293T cells", "setting": "[5]", "result": 8, "unit": "µM"}, {"measurement": "SIcytotoxicity", "setting": "[5]", "result": 2.1}, {"measurement": "CC50 vs HEK293T cells (source data of Figure 4a)", "setting": "[5]", "result": 8.419, "unit": "µM"}, {"measurement": "HC50", "setting": "[6]", "result": 40.1}, {"measurement": "Minimal Inhibitory Concentration, E. coli ATCC 11775 (-)", "setting": "[12]", "result": 16, "unit": "µmol/L"}]}
{"sequence": "KRLRAKMLNSKFIKLIKR [Conoserver-1]", "values": [{"measurement": "Minimal Inhibitory Concentration, E. coli AIC221 (-)", "setting": "[1]", "result": 16, "unit": "µmol/L"}, {"measurement": "Minimal Inhibitory Concentration, S. aureus ATCC BAA-1556 - MRSA (+)", "setting": "[9]", "result": 32, "unit": "µmol/L"}, {"measurement": "Minimal Inhibitory Concentration, P. aeruginosa PAO1 (-)", "setting": "[13]", "result": 32, "unit": "µmol/L"}, {"measurement": "Minimal Inhibitory Concentration, E. faecium ATCC 700221 - VRE (+)", "setting": "[4]", "result": 32, "unit": "µmol/L"}, {"measurement": "Minimal Inhibitory Concentration, P. aeruginosa PA14 (-)", "setting": "[11]", "result": 32, "unit": "µmol/L"}, {"measurement": "SIcytotoxicity", "setting": "[5]", "result": 5.2}, {"measurement": "HC50", "setting": "[6]", "result": "1.085e+083"}]}
{"sequence": "KFSVFSKILRSIAKVF [Arachnoserver-18]", "values": [{"measurement": "Minimal Inhibitory Concentration, E. coli AIC221 (-)", "setting": "[1]", "result": 4, "unit": "µmol/L"}, {"measurement": "Minimal Inhibitory Concentration, A. baumannii ATCC 19606 (-)", "setting": "[8]", "result": 8, "unit": "µmol/L"}, {"measurement": "Minimal Inhibitory Concentration, S. aureus ATCC BAA-1556 - MRSA (+)", "setting": "[9]", "result": 16, "unit": "µmol/L"}, {"measurement": "Minimal Inhibitory Concentration, S. aureus ATCC 12600 (+)", "setting": "[10]", "result": 16, "unit": "µmol/L"}, {"measurement": "Minimal Inhibitory Concentration, P. aeruginosa PAO1 (-)", "setting": "[13]", "result": 32, "unit": "µmol/L"}, {"measurement": "Minimal Inhibitory Concentration, E. faecium ATCC 700221 - VRE (+)", "setting": "[4]", "result": 8, "unit": "µmol/L"}, {"measurement": "Minimal Inhibitory Concentration, P. aeruginosa PA14 (-)", "setting": "[11]", "result": 16, "unit": "µmol/L"}, {"measurement": "SIcytotoxicity", "setting": "[5]", "result": 3.1}, {"measurement": "CC50 vs HEK293T cells (source data of Figure 4a)", "setting": "[5]", "result": 12.34, "unit": "µM"}, {"measurement": "HC50", "setting": "[6]", "result": 53.5}, {"measurement": "Minimal Inhibitory Concentration, E. coli ATCC 11775 (-)", "setting": "[12]", "result": 4, "unit": "µmol/L"}]}
{"sequence": "SKKQIRLYLLKYYGKKLFKKRPK [Arachnoserver-19]", "values": [{"measurement": "Minimal Inhibitory Concentration, E. coli AIC221 (-)", "setting": "[1]", "result": 32, "unit": "µmol/L"}, {"measurement": "Minimal Inhibitory Concentration, P. aeruginosa PAO1 (-)", "setting": "[13]", "result": 16, "unit": "µmol/L"}, {"measurement": "Minimal Inhibitory Concentration, E. coli AIC222 (-)", "setting": "[3]", "result": 32, "unit": "µmol/L"}, {"measurement": "Minimal Inhibitory Concentration, E. faecium ATCC 700221 - VRE (+)", "setting": "[4]", "result": 8, "unit": "µmol/L"}, {"measurement": "Minimal Inhibitory Concentration, P. aeruginosa PA14 (-)", "setting": "[11]", "result": 16, "unit": "µmol/L"}, {"measurement": "SIcytotoxicity", "setting": "[5]", "result": 2.1}, {"measurement": "CC50 vs HEK293T cells (source data of Figure 4a)", "setting": "[5]", "result": 16.68, "unit": "µM"}, {"measurement": "HC50", "setting": "[6]", "result": 163.3}]}
